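Values below derive from 48-hour exposures of cells grown in 96-well plates, with endpoints linearly interpolated between the two concentrations bracketing the appropriate inhibition level. Here, GI50 denotes the concentration required for 50% inhibition of growth. Definition used: TGI = concentration required for complete inhibition of growth.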
How the values were obtained:
Experiment in all cases: growth of human tumour cells (NCI), 48 h
786-0 renal = system: 786-0 renal
A498 renal = system: A498 renal
A549 NSCLC = system: A549 NSCLC
ACHN renal = system: ACHN renal
BT-549 breast = system: BT-549 breast
CAKI-1 renal = system: CAKI-1 renal
CCRF-CEM leukemia = system: CCRF-CEM leukemia
COLO 205 colon = system: COLO 205 colon
DU-145 prostate = system: DU-145 prostate
HCC-2998 colon = system: HCC-2998 colon
HCT-116 colon = system: HCT-116 colon
HCT-15 colon = system: HCT-15 colon
HL-60(TB) leukemia = system: HL-60(TB) leukemia
HOP-62 NSCLC = system: HOP-62 NSCLC
HOP-92 NSCLC = system: HOP-92 NSCLC
HS 578T breast = system: HS 578T breast
HT29 colon = system: HT29 colon
IGROV1 ovarian = system: IGROV1 ovarian
K-562 leukemia = system: K-562 leukemia
KM12 colon = system: KM12 colon
LOX IMVI melanoma = system: LOX IMVI melanoma
M14 melanoma = system: M14 melanoma
MALME-3M melanoma = system: MALME-3M melanoma
MCF7 breast = system: MCF7 breast
MDA-MB-231 breast = system: MDA-MB-231 breast
MDA-MB-435 = system: MDA-MB-435
MOLT-4 leukemia = system: MOLT-4 leukemia
NCI-H226 lung = system: NCI-H226 lung
NCI-H23 lung = system: NCI-H23 lung
NCI-H460 lung = system: NCI-H460 lung
NCI-H522 lung = system: NCI-H522 lung
NCI/ADR-RES ovarian = system: NCI/ADR-RES ovarian
OVCAR-3 ovarian = system: OVCAR-3 ovarian
OVCAR-4 ovarian = system: OVCAR-4 ovarian
OVCAR-5 ovarian = system: OVCAR-5 ovarian
OVCAR-8 ovarian = system: OVCAR-8 ovarian
PC-3 prostate = system: PC-3 prostate
RPMI-8226 leukemia = system: RPMI-8226 leukemia
RXF 393 renal = system: RXF 393 renal
SF-268 CNS = system: SF-268 CNS
SF-295 CNS = system: SF-295 CNS
SF-539 CNS = system: SF-539 CNS
SK-MEL-2 melanoma = system: SK-MEL-2 melanoma
SK-MEL-28 melanoma = system: SK-MEL-28 melanoma
SK-MEL-5 melanoma = system: SK-MEL-5 melanoma
SK-OV-3 ovarian = system: SK-OV-3 ovarian
SN12C renal = system: SN12C renal
SNB-19 CNS = system: SNB-19 CNS
SNB-75 CNS = system: SNB-75 CNS
SR leukemia = system: SR leukemia
SW-620 colon = system: SW-620 colon
T-47D breast = system: T-47D breast
TK-10 renal = system: TK-10 renal
U251 CNS = system: U251 CNS
UACC-257 melanoma = system: UACC-257 melanoma
UACC-62 melanoma = system: UACC-62 melanoma
UO-31 renal = system: UO-31 renal

## O=C1NC(=NCc2ccccc2Br)S/C1=C\c1ccc2ncccc2c1
786-0 renal
  GI50: 9.43 µM
  TGI: > 25 µM
A498 renal
  GI50: 5.55 µM
  TGI: > 21.4 µM
A549 NSCLC
  GI50: 5.99 µM
  TGI: > 25 µM
ACHN renal
  GI50: 10.6 µM
  TGI: > 25 µM
BT-549 breast
  GI50: 6.32 µM
  TGI: > 22.3 µM
CAKI-1 renal
  GI50: 7.18 µM
  TGI: > 25 µM
CCRF-CEM leukemia
  GI50: 7.26 µM
  TGI: > 25 µM
COLO 205 colon
  GI50: 5.4 µM
  TGI: > 25 µM
DU-145 prostate
  GI50: 8.69 µM
  TGI: > 25 µM
HCC-2998 colon
  GI50: 24.3 µM
  TGI: > 25 µM
HCT-116 colon
  GI50: 2.74 µM
  TGI: > 25 µM
HCT-15 colon
  GI50: 4.36 µM
  TGI: > 25 µM
HL-60(TB) leukemia
  GI50: 7.96 µM
  TGI: > 23.4 µM
HOP-62 NSCLC
  GI50: 5.93 µM
  TGI: > 17.5 µM
HOP-92 NSCLC
  GI50: 6.89 µM
  TGI: > 23.3 µM
HS 578T breast
  GI50: 6.28 µM
  TGI: 24.4 µM
HT29 colon
  GI50: 10.7 µM
  TGI: > 25 µM
IGROV1 ovarian
  GI50: 7.68 µM
  TGI: > 21.2 µM
K-562 leukemia
  GI50: 8.19 µM
  TGI: > 25 µM
KM12 colon
  GI50: 10.6 µM
  TGI: > 25 µM
LOX IMVI melanoma
  GI50: 4.7 µM
  TGI: > 25 µM
M14 melanoma
  GI50: 11.1 µM
  TGI: > 25 µM
MALME-3M melanoma
  GI50: > 15.3 µM
  TGI: > 25 µM
MCF7 breast
  GI50: 4.07 µM
  TGI: > 25 µM
MDA-MB-231 breast
  GI50: 15 µM
  TGI: > 25 µM
MDA-MB-435
  GI50: 5.62 µM
  TGI: > 25 µM
MOLT-4 leukemia
  GI50: 10 µM
  TGI: > 25 µM
NCI-H226 lung
  GI50: 8.06 µM
  TGI: > 25 µM
NCI-H23 lung
  GI50: 11.5 µM
  TGI: > 25 µM
NCI-H460 lung
  GI50: 6.1 µM
  TGI: > 25 µM
NCI-H522 lung
  GI50: 6.22 µM
  TGI: 16.5 µM
NCI/ADR-RES ovarian
  GI50: 11.9 µM
  TGI: > 25 µM
OVCAR-3 ovarian
  GI50: 10 µM
  TGI: > 25 µM
OVCAR-4 ovarian
  GI50: 7.35 µM
  TGI: > 25 µM
OVCAR-5 ovarian
  GI50: > 25 µM
  TGI: > 25 µM
OVCAR-8 ovarian
  GI50: 9.14 µM
  TGI: > 25 µM
PC-3 prostate
  GI50: 15.2 µM
  TGI: > 25 µM
RPMI-8226 leukemia
  GI50: 8.74 µM
  TGI: > 25 µM
RXF 393 renal
  GI50: 8.07 µM
  TGI: > 25 µM
SF-268 CNS
  GI50: 7.83 µM
  TGI: > 25 µM
SF-295 CNS
  GI50: 8.03 µM
  TGI: > 25 µM
SF-539 CNS
  GI50: 5.84 µM
  TGI: > 25 µM
SK-MEL-2 melanoma
  GI50: 7.66 µM
  TGI: 19 µM
SK-MEL-28 melanoma
  GI50: > 20.5 µM
  TGI: > 25 µM
SK-MEL-5 melanoma
  GI50: 10.4 µM
  TGI: > 25 µM
SK-OV-3 ovarian
  GI50: 8.11 µM
  TGI: > 18.6 µM
SN12C renal
  GI50: 9.31 µM
  TGI: > 25 µM
SNB-19 CNS
  GI50: 9.4 µM
  TGI: > 25 µM
SNB-75 CNS
  GI50: 3.82 µM
  TGI: > 23.7 µM
SR leukemia
  GI50: 1.03 µM
  TGI: 8.39 µM
SW-620 colon
  GI50: 6.71 µM
  TGI: > 25 µM
T-47D breast
  GI50: 6.78 µM
  TGI: 24.5 µM
TK-10 renal
  GI50: 14.8 µM
  TGI: > 25 µM
U251 CNS
  GI50: 4.77 µM
  TGI: > 25 µM
UACC-257 melanoma
  GI50: 17.8 µM
  TGI: > 25 µM
UACC-62 melanoma
  GI50: 11.8 µM
  TGI: > 25 µM
UO-31 renal
  GI50: 8.08 µM
  TGI: > 22 µM

## COc1cc(-c2cc(/C=C3\C(=O)Nc4cc(Cl)ccc43)[nH]n2)cc(OC)c1OC
786-0 renal
  GI50: 14.4 µM
  TGI: 60.1 µM
A498 renal
  GI50: 2.24 µM
  TGI: 8.22 µM
A549 NSCLC
  GI50: 3.23 µM
  TGI: 15 µM
ACHN renal
  GI50: 3.48 µM
  TGI: 25.6 µM
BT-549 breast
  GI50: 2.54 µM
  TGI: 7.58 µM
CAKI-1 renal
  GI50: 2.71 µM
  TGI: 22.5 µM
CCRF-CEM leukemia
  GI50: 2.63 µM
  TGI: 8.43 µM
COLO 205 colon
  GI50: 1.93 µM
  TGI: 4.36 µM
DU-145 prostate
  GI50: 3.46 µM
  TGI: 14.5 µM
HCC-2998 colon
  GI50: 7.42 µM
  TGI: > 100 µM
HCT-116 colon
  GI50: 2.74 µM
  TGI: 10.3 µM
HCT-15 colon
  GI50: 2.59 µM
  TGI: 7.77 µM
HL-60(TB) leukemia
  GI50: 2.45 µM
  TGI: 7.59 µM
HOP-62 NSCLC
  GI50: 2.16 µM
  TGI: 6.46 µM
HOP-92 NSCLC
  GI50: 1.77 µM
  TGI: 8.89 µM
HS 578T breast
  GI50: 2.74 µM
  TGI: 9.31 µM
HT29 colon
  GI50: 3.46 µM
  TGI: 18.6 µM
IGROV1 ovarian
  GI50: 3.45 µM
  TGI: 37.2 µM
K-562 leukemia
  GI50: 2.82 µM
  TGI: 22.6 µM
KM12 colon
  GI50: 2.27 µM
  TGI: 6.93 µM
LOX IMVI melanoma
  GI50: 1.81 µM
  TGI: 4.06 µM
M14 melanoma
  GI50: 2.42 µM
  TGI: 6.99 µM
MALME-3M melanoma
  GI50: 2.71 µM
  TGI: 6.96 µM
MCF7 breast
  GI50: 2.26 µM
  TGI: 6.39 µM
MDA-MB-231 breast
  GI50: 3.14 µM
  TGI: > 100 µM
MDA-MB-435
  GI50: 1.96 µM
  TGI: 4.18 µM
MOLT-4 leukemia
  GI50: 2.48 µM
  TGI: 6.43 µM
NCI-H226 lung
  GI50: 2.29 µM
  TGI: 7.94 µM
NCI-H23 lung
  GI50: 3.84 µM
  TGI: 18.1 µM
NCI-H460 lung
  GI50: 2.1 µM
  TGI: 4.9 µM
NCI-H522 lung
  GI50: 2.4 µM
  TGI: 6.09 µM
NCI/ADR-RES ovarian
  GI50: 2.74 µM
  TGI: 7.49 µM
OVCAR-3 ovarian
  GI50: 2.74 µM
  TGI: 15.1 µM
OVCAR-4 ovarian
  GI50: 2.91 µM
  TGI: 15 µM
OVCAR-5 ovarian
  GI50: 4.27 µM
  TGI: 78.1 µM
OVCAR-8 ovarian
  GI50: 2.17 µM
  TGI: 5.32 µM
PC-3 prostate
  GI50: 2.25 µM
  TGI: 7.83 µM
RPMI-8226 leukemia
  GI50: 2.02 µM
  TGI: 4.92 µM
RXF 393 renal
  GI50: 5.66 µM
  TGI: 42 µM
SF-268 CNS
  GI50: 3.36 µM
  TGI: 29.1 µM
SF-295 CNS
  GI50: 2.84 µM
  TGI: 8.89 µM
SF-539 CNS
  GI50: 3.92 µM
  TGI: 21.8 µM
SK-MEL-2 melanoma
  GI50: 2.75 µM
  TGI: 7.5 µM
SK-MEL-28 melanoma
  GI50: 3.91 µM
  TGI: 26.4 µM
SK-MEL-5 melanoma
  GI50: 1.43 µM
  TGI: 2.79 µM
SK-OV-3 ovarian
  GI50: 3.29 µM
  TGI: 25.1 µM
SN12C renal
  GI50: 2.68 µM
  TGI: 14.2 µM
SNB-19 CNS
  GI50: 3.45 µM
  TGI: > 100 µM
SNB-75 CNS
  GI50: 1.87 µM
  TGI: 8.17 µM
SR leukemia
  GI50: 2.33 µM
  TGI: 5.66 µM
SW-620 colon
  GI50: 2.87 µM
  TGI: 14.9 µM
T-47D breast
  GI50: 2.13 µM
  TGI: 6.79 µM
TK-10 renal
  GI50: 5.95 µM
  TGI: 32.3 µM
U251 CNS
  GI50: 2.84 µM
  TGI: 14.8 µM
UACC-257 melanoma
  GI50: 2.43 µM
  TGI: 6.13 µM
UACC-62 melanoma
  GI50: 1.76 µM
  TGI: 4.3 µM
UO-31 renal
  GI50: 2.66 µM
  TGI: 15.6 µM
